This is an account of results in article PMC12254070, “Antimicrobial Peptides Design Using Deep Learning and Rational Modifications: Activity in Bacteria, Candida albicans, and Cancer Cells” (Current Microbiology, 2025).

Ends that are not written are not given here.

For data set [1], the system named is C. albicans ATCC 10231. The data set is classed as cell-based, Candida albicans. Particulars: ATCC 10231, 24 h. As to the method:
(§1) The antimicrobial activity of the peptides was evaluated with S. aureus ATCC 25923, P. aeruginosa ATCC 27853, Escherichia coli ATCC 25922, Klebsiella quasipneumoniae ATCC 700603, and the yeast C. albicans ATCC 10231. The minimum inhibitory concentration (MIC) was determined following the protocol described by Wiegand et al.. Briefly, bacteria were grown overnight in Mueller–Hinton (MH) medium at 37 °C and 90 rpm, while C. albicans was grown at 30 °C in MH supplemented with 30% YPD (yeast extract, peptone, dextrose). The concentration of bacteria and C. albicans was adjusted to 10^6 CFU/mL. […] Microorganism growth was measured hourly at 600 nm for 24 h, with a 10-s shaking cycle, on a Multiskan Go microplate reader (Thermo Scientific). The experiments with bacteria were incubated at 37 °C, whereas those with C. albicans were incubated at 30 °C. Each peptide was evaluated by duplicate on 2 different days. The MIC was estimated as the minimum peptide concentration at which the microorganism had no growth. […] In all assays, untreated culture medium without peptides was included as a negative control to account for basal microbial growth. All assays were performed in two independent experiments, each conducted with two technical replicates (n = 4 per condition).

Data set [2] concerns Klebsiella quasipneumoniae ATCC 700603. The data set is classed as cell-based. The following applies: ATCC 700603, 24 h. As to the method: as §1
The subject of data set [3] is Escherichia coli ATCC 25922. In kind it is cell-based. The following applies: ATCC 25922, 24 h. As to the method:
as §1

The test system of data set [4] is human breast adenocarcinoma (MCF-7) cells. In kind it is cell-based. Particulars: 24 h. As to the method: (§2) The methodology proposed by Zhang et al. […] After 24 h of incubation, the wells were washed twice with PBS, and 10 μL of MTT solution was added to each well at a final concentration of 0.5 mg/mL, and the cell cultures were incubated for 4 h at 37 °C. The solution was removed from each well, and the formazan crystals were dissolved with 100 μL of Sodium Dodecyl Sulfate (0.01 M). After 16 h, absorbance was measured with a MultiSkan Go microplate reader at 570 nm. The untreated wells were used as a negative control, while wells treated with DMSO were used as a positive control for cytotoxicity. The percent viability was determined using the following equation. %viability=[…]-×100% where ABSM is the average absorbance with the treatment and ABSC is the absorbance obtained in the controls (positive and negative).

Data set [5] has as its system P. aeruginosa ATCC 27853. The data set is classed as cell-based, Pseudomonas aeruginosa. Particulars: ATCC 27853, 24 h. How it is done:
as §1

Data set [6] concerns human red blood cells. The following applies: red cells of human, 3 h.
The subject of data set [7] is S. aureus ATCC 25923. In kind it is cell-based, Staphylococcus aureus. Particulars: ATCC 25923, 24 h. As to the method:
as §1

Data set [8] deals with human lung adenocarcinoma (A549) cells. In kind it is cell-based. Particulars: 24 h. As to the method:
as §2

One may read the IC50 as the concentration that inhibits the measured activity by half. A high value points to weaker potency in that assay.

On to AKLLGKLLRKKIGVL [OrP4], for which, in data set [1], the IC50 is 23.3 µM and the “MFC C.a” value is listed as 125.3 µM. For the same sequence, in data set [2], 29 µM corresponded to half-maximal inhibition (IC50) and the “MBC K.q” value is > 125.2 (> 125.2) µM. Further, in data set [3], the 50% inhibitory concentration (IC50) was 14.8 µM, the “MBC E.c” value was determined as 62.6 µM and the “MIC E.c” value was 31.3 µM. The sequence also gave a 50% inhibitory concentration (IC50) in data set [4] of more than 100 µM. Moreover, in data set [5], the midpoint of inhibition, the IC50, lay at 23.3 µM; the “MBC P.a” value is listed as 31.3 µM; the “MIC P.a” value is given as 15.7 µM. Further, in data set [6], the “MHC (minimum hemolytic concentration)” value turned out to be 28.98 µM. Further, in data set [7], the “MBC S.a” value was > 125.2 (> 125.2) µM and the “MIC S.a” value is on record as > 125.2 (> 125.2) µM.
Take FKKLLKFLKWLF [VeP1]: in data set [1], the half-inhibitory concentration (IC50) was found to be 31.7 µM and the “MFC C.a” value is listed as more than 113.1 µM. For the same sequence, in data set [2], the concentration for half-maximal inhibition (IC50) is 5.9 µM, the MBC K.q worked out at 28.3 µM and the MIC K.q was determined as 28.3 µM. Further, in data set [3], the 50% inhibitory concentration (IC50) came out at 5.8 µM and the “MBC E.c” value is listed as 14.1 µM. Besides, in data set [5], half-maximal inhibition (IC50) was put at 31.7 µM, the MBC P.a came to 56.6 µM and the MIC P.a was determined as 56.6 µM. Besides, the “MHC (minimum hemolytic concentration)” value in data set [6] came to 4.25 µM. In data set [7], the IC50 stood at 2.1 µM and the “MBC S.a” value is on record as 3.5 µM.
For FKLFCVAKRLPKKVL [OrP9], in data set [1], the midpoint of inhibition, the IC50, lay at 44.1 µM and the “MFC C.a” value was > 119.2 (> 119.2) µM. In data set [2], the IC50 was found to be 93 µM, the “MBC K.q” value is given as > 119.2 (> 119.2) µM and the “MIC K.q” value is > 119.2 (> 119.2) µM. In data set [3], this sequence gave a 50% inhibitory concentration (IC50) of 4.9 µM, an MBC E.c of 7.5 µM and an MIC E.c of 7.5 µM. Besides, the 50% inhibitory concentration (IC50) in data set [4] was more than 100 µM. For the same sequence, in data set [5], the IC50 stood at 44.1 µM, the “MBC P.a” value is 29.8 µM and the “MIC P.a” value is 14.9 µM. Also, in data set [7], the “MBC S.a” value is on record as > 119.2 (> 119.2) µM and the “MIC S.a” value is reported as > 119.2 (> 119.2) µM.
As to IGKVWKVAKKLIKI [OrP9M], in data set [1], 4.9 µM corresponded to half-maximal inhibition (IC50). Also, in data set [2], the IC50 worked out at 3.8 µM, the MBC K.q is 15.6 µM and the MIC K.q worked out at 15.6 µM. For the same sequence, in data set [3], the half-inhibitory concentration (IC50) was 3.2 µM, the MBC E.c amounted to 7.8 µM and the MIC E.c turned out to be 7.8 µM. The IC50 in data set [4] is less than 6.25 µM. In addition, the 50% inhibitory concentration (IC50) in data set [8] turned out to be 25.1 µM. In data set [5], this sequence displayed an IC50 of 4.9 µM and an MBC P.a of 1.9 µM. In addition, in data set [7], the IC50 worked out at 4.5 µM, the “MBC S.a” value is 31.1 µM and the “MIC S.a” value is recorded as 15.6 µM.
Take LAKRWLKLLGKLAK [OrP1M]: in data set [1], inhibition was half-maximal at 10.1 µM (IC50) and the “MFC C.a” value stood at 31.6 µM. In data set [2], this sequence registered an IC50 of 4.5 µM, an MBC K.q of 15.8 µM and an MIC K.q of 15.8 µM. Moreover, in data set [3], the IC50 was determined as 1.5 µM and the MBC E.c amounted to 1.9 µM. In data set [4], this sequence registered an IC50 of less than 6.25 µM. This sequence also registered an IC50 in data set [8] of 21.1 µM. Also, in data set [5], the half-maximal inhibitory concentration (IC50) is 10.1 µM, the MBC P.a worked out at 3.9 µM and the MIC P.a was 3.9 µM. Further, in data set [7], 2.3 µM corresponded to half-maximal inhibition (IC50), the MBC S.a worked out at 3.9 µM and the MIC S.a turned out to be 3.9 µM.
On to LKRLAKLLKKWIKA [OrP4M], for which, in data set [1], half-maximal inhibition (IC50) was put at 9.4 µM and the “MFC C.a” value stood at 28.2 µM. Moreover, in data set [2], the midpoint of inhibition, the IC50, lay at 3.3 µM; the “MBC K.q” value was determined as 14.1 µM; the “MIC K.q” value is 7.1 µM. Besides, in data set [3], the concentration for half-maximal inhibition (IC50) came out at 2.2 µM, the MBC E.c came out at 3.5 µM and the MIC E.c is 3.5 µM. Besides, in data set [4], the half-maximal inhibitory concentration (IC50) was less than 6.25 µM. In data set [5], this sequence gave a 50% inhibitory concentration (IC50) of 9.4 µM, an MBC P.a of 3.5 µM and an MIC P.a of 3.5 µM. Besides, in data set [6], the “MHC (minimum hemolytic concentration)” value turned out to be 59.91 µM. In data set [7], the 50% inhibitory concentration (IC50) was 3.4 µM, the “MBC S.a” value stood at 14.1 µM and the “MIC S.a” value turned out to be 7.1 µM.
